Patent publication US20230172946A1, “In-situ Gel Forming Ophthalmic Formulations Containing Difluprednate” (IVIEW Therapeutics, Inc., priority 2019, published 2023)

What was measured:
[1] = Solubility of difluprednate with different surfactants/solubilizers; format: physicochemical
Protocol: To improve the solubility of difluprednate, different surfactants/solubilizers were investigated to discover suitable solubilizers. Different surfactants/solubilizers such as Poloxamer 188, Poloxamer 407, polysorbate 80, PEG 40 Caster Oil, PEG 60 Caster Oil, PEG 40 Hydrogenated Castor Oil, Polyoxyl 40 Stearate and Soluplus was dissolved in water with different concentrations. Difluprednate was added into the surfactant solutions with the final difluprednate concentration of 0.05%. The solubility of difluprednate was measured. […] Soluplus is a polyethylene glycol, polyvinyl acetate and polyvinylcaprolactame-based graft copolymer (PVAc-PVCap-PEG). It can form nanomicelles in water or other aqueous solutions, and solubilize poorly soluble difluprednate.

[2] = cited from earlier work

CCCC(=O)O[C@]1(C(=O)COC(C)=O)CC[C@H]2[C@@H]3C[C@H](F)C4=CC(=O)C=C[C@]4(C)[C@@]3(F)[C@@H](O)C[C@@]21C [Difluprednate]
solubility of difluprednate ([1]; 5% Polyoxyethylene Castor Oil (RL-40)): > 98%
Solubility % ([1]; Benzyl Benzoate 2% in water, difluprednate 0.05%): 0.37%
Solubility % ([1]; Glyceryl Tricaprylate 0.2% in water, difluprednate 0.05%): 0.84%
Solubility % ([1]; Hypromellose 0.5% in water, difluprednate 0.05%): 17.6%
Solubility % ([1]; Poloxamer188 0.1% in water, difluprednate 0.05%): 3.59%
Solubility % ([1]; Poloxamer 407 0.2% in water, difluprednate 0.05%): 2.20%
Solubility % ([1]; Polyoxyethylene (23) Cetyl Ether 0.2% in water, difluprednate 0.05%): 7.87%
Solubility % ([1]; Polyoxyethylene (23) Cetyl Ether 0.45% in water, difluprednate 0.05%): 15.41%
Solubility % ([1]; Polyoxyethylene (23) Cetyl Ether 1.0% in water, difluprednate 0.05%): 33.70%
Solubility % ([1]; Polyoxyethylene (40) Monostearate 0.5% in water, difluprednate 0.05%): 42.0%
Solubility % ([1]; Polyoxyethylene (40) Stearate 7.0% in water, difluprednate 0.05%): 5.1%
Solubility % ([1]; Polyoxyethylene (60) Castor Oil 5.0% in water, difluprednate 0.05%): 95.3%
solubility of difluprednate ([1]; Polyoxyethylene (60) Castor Oil, at least 4 or 5% needed): > 95%
Solubility % ([1]; Polyoxyethylene Castor Oil (EL) 5.0% in water, difluprednate 0.05%): 93.5%
Solubility % ([1]; Polyoxyethylene Castor Oil (EL-35) 5.0% in water, difluprednate 0.05% (second entry, r27)): 96.3%
solubility of difluprednate ([1]; Polyoxyethylene Castor Oil (EL-35), at least 4 or 5% needed): > 95%
Solubility % ([1]; Polyoxyethylene Castor Oil (EL-40) 5.0% in water, difluprednate 0.05%): >98.0%
Solubility % ([1]; Polyoxyethylene Hydrogenated Castor Oil (RH-40) 0.53% in water, difluprednate 0.05%): 9.7%
Solubility % ([1]; Polyoxyethylene Hydrogenated Castor Oil (RH-40) 1.0% in water, difluprednate 0.05%): 18.6%
Solubility % ([1]; Polyoxyethylene Hydrogenated Castor Oil (RH-40) 2.0% in water, difluprednate 0.05%): 50.0%
Solubility % ([1]; Polyoxyethylene Hydrogenated Castor Oil (RH-40) 3.0% in water, difluprednate 0.05%): 73.1%
Solubility % ([1]; Polyoxyethylene Hydrogenated Castor Oil (RH-40) 4.0% in water, difluprednate 0.05%): 88.1%
Solubility % ([1]; Polyoxyethylene Hydrogenated Castor Oil (RH-40) 5.0% in water, difluprednate 0.05%): 99.5%
Solubility % ([1]; Polyoxyethylene castor oil (EL-35) 5.0% in water, difluprednate 0.05% (first entry, r11)): 82.9%
Solubility % ([1]; Polyoxyl 20 Cetostearyl Ether 1.0% in water, difluprednate 0.05%): 37.2%
Solubility % ([1]; Polyoxyl 20 Cetostearyl Ether 2.0% in water, difluprednate 0.05%): 74.7%
Solubility % ([1]; Polyoxyl 20 Cetostearyl Ether 3.0% in water, difluprednate 0.05%): 79.9%
Solubility % ([1]; Polyoxyl 20 Cetostearyl Ether 4.0% in water, difluprednate 0.05%): 96.9%
Solubility % ([1]; Polyoxyl 20 Cetostearyl Ether 5.0% in water, difluprednate 0.05%): 96.9%
Solubility % ([1]; Polysorbate 80 0.05% in water, difluprednate 0.05%): 1.75%
Solubility % ([1]; Soluplus 0.9% in water, difluprednate 0.05%): 101.9%
Solubility % ([1]; Soluplus 1.2% in water, difluprednate 0.05%): 102.1%
Solubility % ([1]; Soluplus 1.5% in water, difluprednate 0.05%): 102.1%
Solubility % ([1]; Sucrose Fatty Acid Ester 0.2% in water, difluprednate 0.05%): 2.01%
Solubility % ([1]; Sucrose Fatty Acid Ester 1.0% in water, difluprednate 0.05%): 8.36%
Solubility % ([1]; Vitamin E Polyethylene Glycol Succinate 0.5% in water, difluprednate 0.05%): 25.3%
solubility in water [2]: practically insoluble in water
